The text below walks through data of US11384078B2, “5,6-fused-bicyclic compounds and compositions for the treatment of parasitic diseases” (NOVARTIS AG, priority 2017, dated 2022).

What all share (type): cell-based
For experiment [1], the system named is Trypanosoma brucei brucei (Lister 427) strain. Nature of the experiment: Assay for growth inhibition against Trypanosoma brucei brucei (Cell TiterGlo ATP luminescence). To be noted: Trypanosoma brucei, T. brucei brucei (Lister 427); read-out: T. Brucei (HAT) EC50. The method, boiled down: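 T. b. brucei Lister 427 grown in HMI-9 with 10% FBS and 10% serum plus, seeded at 10,000 parasites/mL with 10-point threefold compound dilutions in duplicate, 37 °C for 2 days. Viability read as ATP luminescence 30 min after Cell TiterGlo; IC50 versus untreated controls.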

Experiment [2] concerns L. donovani HU3 strain in mouse peritoneal macrophages. Briefly: Assay for inhibition of parasitemia of Leishmania donovani in mouse macrophages (SYBR Green nuclei count, high-content imaging). To be noted: Leishmania donovani, Peritoneal macrophage, L. donovani in mouse peritoneal macrophages; read-out: L. donovani in Mouse Macrophages EC50. A digest of the protocol: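 Peritoneal macrophages from uninfected BALB/c mice were infected for 24 h with spleen-derived L. donovani HU3 (4×10^5 parasites per 2×10^4 macrophages), then cultured with compound for 5 days at 37° C, 5% CO2. After fixation and permeabilization, parasite nuclei were stained with SYBR Green and counted by high-content imaging.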

The test system of experiment [3] is Trypanosoma cruzi amastigotes cultured in 3T3 fibroblast cells. Nature of the experiment: Assay for growth inhibition of kinetoplastid parasite Trypanosoma cruzi (beta-galactosidase Tulahuen strain, CPRG readout). The conditions noted are these: Trypanosoma cruzi, Fibroblast, T. cruzi amastigotes in 3T3 fibroblast cells; read-out: Buckner infectious T. cruzi EC50. The method, boiled down: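 3T3 fibroblasts (1,000 cells/well) plated overnight, treated with compound in DMSO, then infected with 10,000 Lac-Z-expressing Tulahuen trypomastigotes. After 6 days, 0.6 mM CPRG with 0.6% NP-40 added for 2 h at room temperature; absorbance gives relative intracellular amastigote numbers. Benznidazole and nifurtimox serve as positive controls.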

The test system of experiment [4] is Leishmania donovani axenic amastigote. Briefly: In vitro assay for growth inhibition of Leishmania donovani axenic amastigote (Cell TiterGlo luminescence). The conditions noted are these: Leishmania donovani, L. donovani axenic amastigotes in vitro; read-out: L. donovani amastigotes EC50. The method, boiled down: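 Axenic L. donovani amastigotes (9600/well) grown at 37 °C, 5% CO2 in supplemented RPMI 1640, pH 5.5, with compound added from DMSO. After two days, viability read by CellTiter-Glo luminescence against DMSO and control-compound wells.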
On the technique in general: Cellular ATP, detected with luciferase, serves as a proxy for viable cell number.

SMILES strings stand for the structures.

`Cc1cnc2nn(-c3cc(NC(=O)N4CC(F)C4)ccc3F)cc2c1` [Compound 318, 3-fluoro-N-(4-fluoro-3-{5-methyl-2H-pyrazolo[3,4-b]pyridin-2-yl}phenyl)azetidine-1-carboxamide]: the EC50 in experiment [1] was determined as 15 nM; in experiment [2] it was 32 nM; in experiment [3], 13 nM; in experiment [4], 27 nM.
In the same order, the values of `CN(C)c1cnc2nn(-c3cc(NC(=O)N4CC(F)C4)ccc3F)cc2c1` [Compound 167, N-{3-[5-(dimethylamino)-2H-pyrazolo[3,4-b]pyridin-2-yl]-4-fluorophenyl}-3-fluoroazetidine-1-carboxamide] are below 23 nM, 8.2 nM, 2.2 nM and 2.9 nM.
On to `O=C(Nc1ccc(F)c(-n2cc3cc(N4CC5(CCOC5)C4)cnc3n2)c1)N1CC2(CCOC2)C1` [Compound 246, N-[4-fluoro-3-(5-{6-oxa-2-azaspiro[3.4]octan-2-yl}-2H-pyrazolo[3,4-b]pyridin-2-yl)phenyl}-6-oxa-2-azaspiro[3.4]octane-2-carboxamide], for which the half-maximal effective concentration (EC50) stood at 396 nM in experiment [1], 379 nM in experiment [2], 2840 nM in experiment [3] and 535 nM in experiment [4].
In the same order, the values of `CC(C)c1cnc2nn(-c3cc(NC(=O)c4ccc(F)cn4)ccc3F)cc2c1` [Compound 67, 5-fluoro-N-{4-fluoro-3-[5-(propan-2-yl)-2H-pyrazolo[3,4-b]pyridin-2-yl]phenyl}pyridine-2-carboxamide] are above 50000 nM, 310 nM, 42 nM and 210 nM.
On the same counts, the results for `CCCC(C)c1cnc2nn(-c3cc(NC(=O)N4CC[C@@H](F)C4)ccc3F)cc2c1` (stereo partly drawn) [Compound 48, (3R)-3-fluoro-N-{4-fluoro-3-[5-(pentan-2-yl)-2H-pyrazolo[3,4-b]pyridin-2-yl]phenyl}pyrrolidine-1-carboxamide] are 50 nM, 330 nM, 290 nM and 350 nM.
In the same order, the values of `CC(C)c1cnc2nn(-c3cc(NC(=O)N4CC[C@@H](F)C4)ccc3F)cc2c1` [Compound 195, (3R)-3-fluoro-N-{4-fluoro-3-[5-(propan-2-yl)-2H-pyrazolo[3,4-b]pyridin-2-yl]phenyl}pyrrolidine-1-carboxamide] are below 23 nM, 6.4 nM, 4 nM and 10 nM.
For `O=C(Nc1ccc(F)c(-n2cc3cc(C4CC4)cnc3n2)c1)N1CCC1` [Compound 91, N-(3-{5-cyclopropyl-2H-pyrazolo[3,4-b]pyridin-2-yl}-4-fluorophenyl)azetidine-1-carboxamide], the half-maximal effective concentration (EC50) in experiment [1] is below 23 nM; in experiment [2], 8.6 nM; in experiment [3], 4.1 nM; in experiment [4], 8.7 nM.
For `Cc1nc(C(=O)Nc2ccc(F)c(-n3cc4cc(C(C)C)cnc4n3)c2)co1` [Compound 85, N-{4-fluoro-3-[5-(propan-2-yl)-2H-pyrazolo[3,4-b]pyridin-2-yl]phenyl}-2-methyl-1,3-oxazole-4-carboxamide], the EC50 in experiment [1] was 180 nM; in experiment [2], 750 nM; in experiment [3], 150 nM; in experiment [4], 1200 nM.
In the same order, the values of `O=C(Nc1ccc(F)c(-n2cc3cc(-c4ccccn4)cnc3n2)c1)N1CCC1` [Compound 99, N-{4-fluoro-3-[5-(pyridin-2-yl)-2H-pyrazolo[3,4-b]pyridin-2-yl]phenyl}azetidine-1-carboxamide] are above 50000 nM, 2 nM, 1 nM and 1.3 nM.
On the same counts, the results for `CC(C)OC(=O)Nc1cnc2nn(-c3cc(NC(=O)N4CCC4)ccc3F)cc2c1` [Compound 138, propan-2-yl N-(2-{5-[(azetidine-1-carbonyl)amino]-2-fluorophenyl}-2H-pyrazolo[3,4-b]pyridin-5-yl)carbamate] are below 23 nM, 5.7 nM, 47 nM and 11 nM.
In the same order, the values of `O=C(Nc1ccc(F)c(-n2cc3cc(N4CC(C(F)(F)F)C4)cnc3n2)c1)N1CC[C@@H](F)C1` [Compound 275] are 1 nM, 3 nM, 1 nM and 3 nM.
In the case of `CCCC(C)c1cnc2nn(-c3cc(NC(=O)N4CCC4)ccc3F)cc2c1` (stereo not shown) [Compound 95, N-{4-fluoro-3-[5-(pentan-2-yl)-2H-pyrazolo[3,4-b]pyridin-2-yl]phenyl}azetidine-1-carboxamide], the concentration for a half-maximal effect (EC50) in experiment [1] stood at 85 nM; in experiment [2] it was 350 nM; in experiment [3] it was 170 nM; in experiment [4] it was 420 nM.
In the same order, the values of `O=C(Nc1ccc(F)c(-n2cc3cc(-c4cnn(C5CC5)c4)cnc3n2)c1)N1CC(F)C1` [Compound 325, N-{3-[5-(1-cyclopropyl-1H-pyrazol-4-yl)-2H-pyrazolo[3,4-b]pyridin-2-yl]-4-fluorophenyl}-3-fluoroazetidine-1-carboxamide] are 11 nM, 50 nM, 36 nM and 8 nM.
Take `O=C(Nc1ccc(F)c(-n2cc3cc(-c4c[nH]cn4)cnc3n2)c1)N1CC(F)C1` [Compound 295, 3-fluoro-N-{4-fluoro-3-[5-(1H-imidazol-4-yl)-2H-pyrazolo[3,4-b]pyridin-2-yl]phenyl}azetidine-1-carboxamide]: the concentration for a half-maximal effect (EC50) in experiment [1] amounted to 38 nM; in experiment [2] it was 1970 nM; in experiment [3] it was 4290 nM; in experiment [4], 292 nM.
On the same counts, the results for `[2H]C([2H])([2H])N(c1cnc2nn(-c3cc(NC(=O)N4CC[C@@H](F)C4)ccc3F)cc2c1)C([2H])([2H])[2H]` [Compound 308, (3R)-N-(3-{5-[bis(^2H3)methylamino]-2H-pyrazolo[3,4-b]pyridin-2-yl}-4-fluorophenyl)-3-fluoropyrrolidine-1-carboxamide] are 5 nM, 2 nM, 4 nM and 568 nM.
Turning to `O=C(Nc1ccc(F)c(-n2cc3cc(N4CCN(CC(F)(F)F)CC4)cnc3n2)c1)N1CCC1` [Compound 250, N-(4-fluoro-3-{5-[4-(2,2,2-trifluoroethyl)piperazin-1-yl]-2H-pyrazolo[3,4-b]pyridin-2-yl}phenyl)azetidine-1-carboxamide], the half-maximal effective concentration (EC50) is 5 nM in experiment [1], 10 nM in experiment [2], 1 nM in experiment [3] and 43 nM in experiment [4].
In the case of `O=C(Nc1ccc(F)c(-n2cc3cc(N4C[C@@H]5C[C@H]4CO5)cnc3n2)c1)N1CC(F)C1` [Compound 172, 3-fluoro-N-(4-fluoro-3-{5-[(1S,4S)-2-oxa-5-azabicyclo[2.2.1]heptan-5-yl]-2H-pyrazolo[3,4-b]pyridin-2-yl]phenyl)azetidine-1-carboxamide], the EC50 in experiment [1] was below 23 nM; in experiment [2], 11 nM; in experiment [3], 33 nM; in experiment [4], 6.7 nM.
In the same order, the values of `O=C(Nc1ccc(F)c(-n2cc3cc(N4CC5(CC5)C4)cnc3n2)c1)[C@H]1C[C@@H]1F` (racemic) [Compound 272, (1R,2S)-N-[3-(5-{5-azaspiro[2.3]hexan-5-yl}-2H-pyrazolo[3,4-b]pyridin-2-yl]-4-fluorophenyl}-2-fluorocyclopropane-1-carboxamide] are 351 nM, 85 nM, 114 nM and 131 nM.
In the same order, the values of `O=C(Nc1ccc(F)c(-n2cc3cc(N4CCC5(CC5)C4)cnc3n2)c1)N1CC(F)C1` [Compound 241, N-[3-(5-{5-azaspiro[2.4]heptan-5-yl}-2H-pyrazolo[3,4-b]pyridin-2-yl)-4-fluorophenyl}-3-fluoroazetidine-1-carboxamide] are 5 nM, 6 nM, 3 nM and 1190 nM.
On the same counts, the results for `CC(C)c1cnc2nn(-c3cc(NC(=O)CCC(F)(F)F)ccc3F)cc2c1` [Compound 173, 4,4,4-trifluoro-N-(4-fluoro-3-(5-isopropyl-2H-pyrazolo[3,4-b]pyridin-2-yl)phenyl)butanamide] are 120 nM, 500 nM, 140 nM and 410 nM.
With `Cc1nc(C)c(C(=O)Nc2ccc(F)c(-n3cc4cc(-c5ncccc5CO)cnc4n3)c2)o1` [Compound 335], the EC50 was determined as 36 nM in experiment [1], 111 nM in experiment [2], 470 nM in experiment [3] and 13 nM in experiment [4].
In the same order, the values of `CC(C)c1cnc2nn(-c3cc(NC(=O)OCCC(F)(F)F)ccc3F)cc2c1` [Compound 174, 3,3,3-trifluoropropyl N-{4-fluoro-3-[5-(propan-2-yl)-2H-pyrazolo[3,4-b]pyridin-2-yl]phenyl}carbamate] are 1000 nM, 2700 nM, 720 nM and 2000 nM.

By EC50 is commonly meant the concentration giving half of the maximal effect.
